These results are taken from paper PMC6009875, “Structure–activity relationships of fraxamoside as an unusual xanthine oxidase inhibitor” (Journal of Enzyme Inhibition and Medicinal Chemistry, 2017).

SMILES strings stand for the structures. Like-named read-outs stand apart in the source and are kept apart here.

For experiment [1], the target named is T1, Xanthine oxidase from bovine milk (Bos taurus, UniProt P80457).
T1 construct: Xanthine oxidase from bovine milk (0.2 U/mg); purchased Sigma-Aldrich (St. Louis, MO); host or cells: bovine milk
T1 sequence (P80457 whole entry): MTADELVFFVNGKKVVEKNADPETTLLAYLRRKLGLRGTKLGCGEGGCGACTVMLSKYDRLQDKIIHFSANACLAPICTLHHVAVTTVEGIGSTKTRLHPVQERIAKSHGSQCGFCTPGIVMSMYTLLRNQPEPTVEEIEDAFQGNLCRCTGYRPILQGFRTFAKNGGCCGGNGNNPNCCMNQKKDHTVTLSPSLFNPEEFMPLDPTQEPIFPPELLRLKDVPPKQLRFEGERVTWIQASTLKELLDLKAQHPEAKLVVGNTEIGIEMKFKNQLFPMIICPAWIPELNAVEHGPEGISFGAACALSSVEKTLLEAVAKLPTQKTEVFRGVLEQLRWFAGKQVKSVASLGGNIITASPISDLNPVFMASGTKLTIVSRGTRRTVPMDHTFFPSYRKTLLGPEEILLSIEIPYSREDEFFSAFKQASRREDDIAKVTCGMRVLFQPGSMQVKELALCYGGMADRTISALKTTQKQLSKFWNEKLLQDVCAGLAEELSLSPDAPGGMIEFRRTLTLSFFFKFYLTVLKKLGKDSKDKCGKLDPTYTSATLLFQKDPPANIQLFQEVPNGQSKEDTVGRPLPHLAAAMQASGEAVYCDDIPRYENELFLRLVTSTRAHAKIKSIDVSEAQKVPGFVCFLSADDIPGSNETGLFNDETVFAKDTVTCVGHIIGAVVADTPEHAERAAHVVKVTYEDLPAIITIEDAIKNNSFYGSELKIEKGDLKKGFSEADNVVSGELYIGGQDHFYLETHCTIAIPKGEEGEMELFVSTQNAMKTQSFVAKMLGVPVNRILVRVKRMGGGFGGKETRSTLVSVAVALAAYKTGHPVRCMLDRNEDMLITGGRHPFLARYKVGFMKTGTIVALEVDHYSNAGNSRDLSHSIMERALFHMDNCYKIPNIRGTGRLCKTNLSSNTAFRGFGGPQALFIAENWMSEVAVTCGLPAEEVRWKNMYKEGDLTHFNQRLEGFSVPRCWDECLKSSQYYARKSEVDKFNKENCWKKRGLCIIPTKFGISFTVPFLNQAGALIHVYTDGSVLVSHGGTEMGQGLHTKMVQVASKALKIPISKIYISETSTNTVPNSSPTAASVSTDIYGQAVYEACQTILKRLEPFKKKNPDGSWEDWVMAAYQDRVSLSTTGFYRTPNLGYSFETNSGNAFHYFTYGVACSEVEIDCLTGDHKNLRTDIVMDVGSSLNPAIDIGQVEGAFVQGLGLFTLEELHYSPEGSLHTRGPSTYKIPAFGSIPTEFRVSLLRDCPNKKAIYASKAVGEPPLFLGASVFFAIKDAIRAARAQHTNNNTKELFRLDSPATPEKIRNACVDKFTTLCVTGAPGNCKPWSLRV
Put plainly: XO inhibition kinetics (Lineweaver-Burk, Ki). The experiment is classed as biochemical. The note with it: for Inhibition mode: Lineweaver-Burk plots. How it is done:
The assay was carried out in a 500-μL final volume buffer A, constituted by 50 mM phosphate buffer, pH 7.8, 0.1 mM EDTA, supplemented with increasing concentration of xanthine as substrate in the absence or in the presence of variable amounts of the selected inhibitor. The assay was initiated by adding 10 μL of 160 U/L XO solution to the reaction mixture, without or with inhibitors, and it was followed in kinetics by reading the absorbance up to 2 min at 20 °C, thus calculating the rate of acid uric formation in the linear range of the reaction. The kinetic parameters of the XO reaction were derived from Lineweaver–Burk plots obtained measuring the rate of uric acid formation at different xanthine concentration (ranging between 0.4 and10 μM). Inhibition studies were carried out by measuring the kinetic parameters in the presence of different inhibitors. […] Km/Ki + Km.
The kinetic parameters of XO were determined by Lineweaver–Burk plot using a standard curve-fitting program. At each single concentration of substrate, the activity was evaluated in triplicate. […] Correlation and regression analyses and statistical analysis were made with Student’s t-test, using the software KaleidaGraph (Reading, PA). p values lower than 0.05 were considered to be significant.

Experiment [2] concerns XO. The arrangement: method as in PMID 25102361. As to conditions: read-out: IC50 (XO inhibitory effect); cited from earlier work.
The target in experiment [3] is T1, Xanthine oxidase from bovine milk. Put plainly: XO activity assay (IC50, uric acid formation at 295 nm). The experiment is classed as biochemical. As to conditions: total absence of methanol; 50 μM xanthine, pH 7.8, 20 °C. How it is done: The assay was carried out in a 500 μL final volume reaction mixture, containing 50 mM phosphate buffer, pH 7.8, 0.1 mM EDTA, 50 μM xanthine as substrate, 3.2 U/L XO, and different amounts of each compound as potential XO inhibitor. The assay was started by adding 10 μL of the enzyme stock solution to the reaction mixture and followed by reading the absorbance up to 2 min at 20 °C, thus calculating the corresponding rate in the linear range of the reaction. For each sample, the extent of the inhibitory effect (i) was calculated as i = (V0 – Vi)/V0 where V0 and Vi are respectively the rate measured in the absence or presence at least six different amounts of the compounds used [I], whose range of concentration was properly chosen.

Experiment [4] concerns XO. The arrangement: method as in Flemmig et al.[52]. The note with it: ref Flemmig et al.[52], cited from earlier work.

With `Oc1ncnc2[nH]ncc12` [Allopurinol, allopurinol, reference compound], the Inhibition mode entry in experiment [1] is “competitive inhibition mode”.

A word on the IC50: it is the concentration that gives 50% inhibition. As for `O=c1c(O)c(-c2ccc(O)c(O)c2)oc2cc(O)cc(O)c12` [quercetin], the half-inhibitory concentration (IC50) with XO [2] was 1.9 µM.

Consider `C/C=C1/[C@H](O[C@@H]2O[C@H](CO)[C@@H](O)[C@H](O)[C@H]2O)OC=C(C(=O)OC)[C@H]1CC(=O)O` [Compound 3, oleoside 11-methyl ester], for which the IC50 in experiment [3] stood at 259 ± 13 µM.

As usually defined, the Ki is a measure of affinity in units of concentration, obtained from inhibition or displacement. Regarding `C/C=C1/[C@H]2OC=C(C(=O)OC)[C@H]1CC(=O)OC[C@@H](c1ccc(O)c(O)c1)OC[C@H]1O[C@@H](O2)[C@H](O)[C@@H](O)[C@@H]1O` [Compound 1, fraxamoside], the half-maximal inhibitory concentration (IC50) in experiment [3] came out at 16.1 ± 0.7 µM. Also, the values for the Inhibition mode entry in experiment [1] and in experiment [1] (listed as fraxamoside) were “Competitive” and “competitively inhibited”, respectively. Further, the “Ki lower than that of oleuropein (fold)” value in experiment [1] (fraxamoside Ki versus oleuropein Ki) is “at least 50 times”. In experiment [1] (secondary plot of K'm versus [I], xanthine 0.4-10 μM, pH 7.8, 20 °C), this compound showed an inhibition constant (Ki) of 0.9 ± 0.25 µM.

For the compound `C/C=C1/[C@H](O[C@@H]2O[C@H](CO)[C@@H](O)[C@H](O)[C@H]2O)OC=C(C(=O)OC)[C@H]1CC(=O)OCCc1ccc(O)c(O)c1` [Compound 2, oleuropein], in experiment [3], the IC50 was found to be 335 ± 17 µM. For the same compound, the Inhibition mode entry was “Competitive^a” with XO [4] and “competitive inhibition mode” with XO [4] (listed as oleuropein). The Ki at XO [4] (read-out: Ki) was 53 µM.

Turning to `O=c1c(O[C@@H]2O[C@H](CO)[C@@H](O)[C@H](O)[C@H]2O)c(-c2ccc(O)c(O)c2)oc2cc(O)cc(O)c12` [quercetin 3-O-glucoside], the IC50 in the experiment on XO [2] was 54.6 µM.

In experiment [3], `OCCc1ccc(O)c(O)c1` [Compound 4, hydroxytyrosol] came in with an IC50 of 1130 ± 22 µM. Besides, the Ki result at XO [4] is listed as “No inhibition^a”.
